From ChEMBL document CHEMBL1128401, “Structure-activity relationships in the 8-amino-6,7,8,9-tetrahydro-3H-benz[e]indole ring system. 1. Effects of substituents in the aromatic system on serotonin and dopamine receptor subtypes” (J Med Chem, 1995)
Calls of active or inactive are those of the source. The rule behind the calls is not given here.

Assays:
[1] = target: 5-hydroxytryptamine receptor 1D (Homo sapiens, UniProt P28221); assay: Binding affinity against 5-hydroxytryptamine 1D receptor alpha expressed in CHO-K1 cells, using [3H]-5-HT as the radioligand.; assay type: cell-based; conditions: read-out: Ki
Chain of 5-hydroxytryptamine receptor 1D (P28221 whole entry): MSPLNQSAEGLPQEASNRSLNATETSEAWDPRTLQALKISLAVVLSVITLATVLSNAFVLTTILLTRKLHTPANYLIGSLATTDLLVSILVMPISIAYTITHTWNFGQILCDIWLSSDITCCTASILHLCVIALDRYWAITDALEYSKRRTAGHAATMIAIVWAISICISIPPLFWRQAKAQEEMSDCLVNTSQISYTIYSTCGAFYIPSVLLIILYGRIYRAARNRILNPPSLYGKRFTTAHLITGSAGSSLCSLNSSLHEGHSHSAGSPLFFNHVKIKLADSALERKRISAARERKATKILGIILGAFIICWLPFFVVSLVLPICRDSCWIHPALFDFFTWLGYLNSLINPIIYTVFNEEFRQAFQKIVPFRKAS

D(3) dopamine receptor [2] = target: T1, D(3) dopamine receptor (Rattus norvegicus, UniProt P19020); assay: Binding affinity against Dopamine receptor D3 expressed in CHO-K1 cells, using [3H]spiperone as the radioligand.; assay type: cell-based
T1 sequence (P19020 whole entry): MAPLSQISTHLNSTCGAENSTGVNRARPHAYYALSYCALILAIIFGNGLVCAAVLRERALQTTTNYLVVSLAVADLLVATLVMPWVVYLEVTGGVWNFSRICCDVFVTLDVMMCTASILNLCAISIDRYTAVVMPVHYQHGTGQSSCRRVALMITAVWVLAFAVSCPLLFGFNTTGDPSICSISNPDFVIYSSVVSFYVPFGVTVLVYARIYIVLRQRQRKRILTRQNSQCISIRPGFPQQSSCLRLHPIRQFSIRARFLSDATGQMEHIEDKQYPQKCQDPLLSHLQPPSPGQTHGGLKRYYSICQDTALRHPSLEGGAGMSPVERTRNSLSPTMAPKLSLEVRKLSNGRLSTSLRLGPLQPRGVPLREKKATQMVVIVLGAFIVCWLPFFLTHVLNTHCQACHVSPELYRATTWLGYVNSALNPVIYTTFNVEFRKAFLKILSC

Rattus norvegicus [3] = assay: In vivo for 5-HTP accumulation in hemispheres (cortex) against reserpine-pretreated rats.; assay type: functional
Rattus norvegicus [4] = assay: In vivo for 5-HTP accumulation in corpus striatum against reserpine-pretreated rats.; assay type: functional
[5] = target: 5-hydroxytryptamine receptor 1B (Homo sapiens, UniProt P28222); assay: Binding affinity against 5-hydroxytryptamine 1D receptor beta expressed in CHO-K1 cells, using [3H]5-HT as the radioligand.; assay type: cell-based; conditions: read-out: Ki
Chain of 5-hydroxytryptamine receptor 1B (P28222 whole entry): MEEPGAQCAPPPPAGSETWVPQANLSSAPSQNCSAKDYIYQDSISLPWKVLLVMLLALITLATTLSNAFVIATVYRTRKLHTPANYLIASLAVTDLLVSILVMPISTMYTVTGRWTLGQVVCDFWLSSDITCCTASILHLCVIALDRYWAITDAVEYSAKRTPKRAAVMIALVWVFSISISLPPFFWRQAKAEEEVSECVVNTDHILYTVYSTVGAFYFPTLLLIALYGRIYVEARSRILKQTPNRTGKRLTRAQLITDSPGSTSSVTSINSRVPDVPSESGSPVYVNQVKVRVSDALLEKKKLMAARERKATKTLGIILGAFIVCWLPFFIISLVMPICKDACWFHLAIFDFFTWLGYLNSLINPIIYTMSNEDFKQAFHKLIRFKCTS

[6] = target: T2, 5-hydroxytryptamine receptor 1A (Rattus norvegicus, UniProt P19327); assay: Binding affinity against 5-hydroxytryptamine 1A receptor from CHO-K1 cells, using [3H]8-OH-DPAT as the radioligand.; assay type: cell-based
T2 sequence (P19327 whole entry): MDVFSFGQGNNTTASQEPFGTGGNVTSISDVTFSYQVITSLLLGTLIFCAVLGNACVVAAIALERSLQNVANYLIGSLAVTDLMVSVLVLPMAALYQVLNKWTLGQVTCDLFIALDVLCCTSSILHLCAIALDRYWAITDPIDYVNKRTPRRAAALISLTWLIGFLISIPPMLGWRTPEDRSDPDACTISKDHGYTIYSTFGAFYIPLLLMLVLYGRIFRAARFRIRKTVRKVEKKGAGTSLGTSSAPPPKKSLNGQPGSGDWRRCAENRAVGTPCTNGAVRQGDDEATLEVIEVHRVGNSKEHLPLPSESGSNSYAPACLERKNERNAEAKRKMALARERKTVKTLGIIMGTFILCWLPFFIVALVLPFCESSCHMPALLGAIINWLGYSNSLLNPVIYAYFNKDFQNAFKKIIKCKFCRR

Rattus norvegicus [7] = assay: The Compound was tested in vivo for DOPA accumulation in hemispheres (cortex) against reserpine-pretreated rats;I= inactive at the highest dose (12.5); assay type: functional, organism-based
D(2) dopamine receptor = D(2) dopamine receptor (Rattus norvegicus, UniProt P61169); assay: Binding affinity against Dopamine receptor D2 from CHO-K1 cells, using [3H]U-86,170 as the radioligand.; assay type: cell-based
Chain of D(2) dopamine receptor (P61169 whole entry): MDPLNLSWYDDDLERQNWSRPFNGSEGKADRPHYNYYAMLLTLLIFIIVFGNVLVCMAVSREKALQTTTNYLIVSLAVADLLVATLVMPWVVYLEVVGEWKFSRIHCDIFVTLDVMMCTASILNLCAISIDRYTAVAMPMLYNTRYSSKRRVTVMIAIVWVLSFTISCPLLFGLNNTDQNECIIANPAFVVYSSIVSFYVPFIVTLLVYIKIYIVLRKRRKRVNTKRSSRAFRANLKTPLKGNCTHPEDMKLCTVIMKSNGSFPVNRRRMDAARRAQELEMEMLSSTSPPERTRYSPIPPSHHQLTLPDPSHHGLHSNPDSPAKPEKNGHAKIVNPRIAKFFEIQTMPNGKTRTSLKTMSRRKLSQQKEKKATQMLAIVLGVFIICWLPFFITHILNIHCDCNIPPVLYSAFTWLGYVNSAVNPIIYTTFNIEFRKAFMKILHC

Rattus norvegicus [8] = assay: In vivo for DOPA accumulation in limbic system against reserpine-pretreated rats.; assay type: functional
Rattus norvegicus [9] = assay: In vivo for 5-HTP accumulation in limbic system against reserpine-pretreated rats.; assay type: functional
Rattus norvegicus [10] = assay: In vivo for DOPA accumulation in corpus striatum against reserpine-pretreated rats.; assay type: functional
D(3) dopamine receptor [11] = target: T1, D(3) dopamine receptor; assay: Binding affinity against Dopamine receptor D3 from CHO-K1 cells, using [3H]spiperone as the radioligand.; assay type: cell-based; conditions: read-out: Ki
Rattus norvegicus [12] = assay: Bioavailability in male Sprague-Dawley rats, after the po administration at a dose of 10.0(pmol/g/h); assay type: ADME, organism-based; conditions: in vivo
Rattus norvegicus [13] = assay: Bioavailability in male Sprague-Dawley rats, after the iv administration at a dose of 2.0(pmol/g/h); assay type: ADME, organism-based; conditions: in vivo
[14] = tmax in hours at a po dose of 10.0(pmol/g/h).; assay type: ADME, organism-based; conditions: in vivo
[15] = Bioavailability in rat plasma following iv/po dose; assay type: ADME, organism-based
[16] = tmax in hours at a iv dose of 2.0(pmol/g/h).; assay type: ADME, organism-based; conditions: in vivo
Rattus norvegicus [17] = assay: compound was tested in vivo for 5-HTP accumulation in corpus striatum against reserpine-pretreated rats, activity expressed as ED50; assay type: functional
Rattus norvegicus [18] = assay: The compound was tested in vivo for DOPA accumulation in hemispheres (cortex) against reserpine-pretreated rats;I= inactive at the highest dose tested; assay type: functional, organism-based

| Compound | Ki [1] [nM] | ED50 (Rattus norvegicus [3]) [µmol/kg] | ED50 (Rattus norvegicus [4]) [µmol/kg] | Ki [5] [nM] | Ki [6] [nM] | ED50 (Rattus norvegicus [7]) | Ki (D(2) dopamine receptor) [nM] | ED50 (Rattus norvegicus [8]) [µmol/kg] | ED50 (Rattus norvegicus [9]) [µmol/kg] | ED50 (Rattus norvegicus [10]) [µmol/kg] | Ki (D(3) dopamine receptor [11]) [nM] | also measured |
| --- | --- | --- | --- | --- | --- | --- | --- | --- | --- | --- | --- | --- |
| CCCN(CCC)C1CCc2ccc3[nH]cc(C)c3c2C1 (stereo unspecified) | 43 | – | – | – | – | – | – | – | – | – | – | Ki (D(3) dopamine receptor [2]): 67 nM |
| CCCN(CCC)[C@H]1CCc2cc(F)c3[nH]ccc3c2C1 | – | 0.83 | 0.42 | 948 | 3.7 | inactive | 4.4 | 0.8 | 0.74 | 0.43 | – | – |
| CCCN(CCC)C1CCc2cc(F)c3c(ccn3C)c2C1 (stereo unspecified) | 217 | – | – | 1650 | 250 | – | 86 | – | – | – | 52 | – |
| CCCN(CCC)[C@@H]1CCc2cc(F)c3[nH]ccc3c2C1 | – | 0.51 | 0.7 | 142 | 1.5 | inactive | 7.8 | 0.49 | 0.53 | 0.63 | – | – |
| CN(C)[C@@H]1CCc2ccc3[nH]ccc3c2C1 | – | – | – | – | – | – | – | – | – | – | – | AUC (Rattus norvegicus [12]): 848 pM ml-1; AUC (Rattus norvegicus [13]): 431 pM ml-1; T max [14]: 150 h; bioavailability [15]: 46%; Tmax [16]: 2 h |
| CCCN(CCC)[C@H]1CCc2ccc3[nH]cc(C=O)c3c2C1 | 155 | – | – | 939 | – | – | 423 | – | – | – | 751 | ED50 (Rattus norvegicus [17]): 0.0052 µmol/kg; ED50 (Rattus norvegicus [18]): inactive |
